In one data set the test system is P. aeruginosa PaO1. Type of data set: cell-based. The procedure: (§1) In the initial screening, the bactericidal activity of the synthetic peptides and their toxicity on human lung epithelial cells (A549) were evaluated.
(§2) Table S1. MICs of the six hexapeptides for A. baumannii and E. coli.
(§3) Peptides P. aeruginosa PaO1
(§4) MIC: minimal inhibitory concentration

In the next data set the test system is E. coli ATCC 25922. Type of data set: cell-based. The procedure:
as §1, §2, §3, §4

The next data set relates to A. baumannii ATCC 17978. Type of data set: cell-based. The procedure: as §1, §2, §3, §4
Data set [1] can be described thus: Peptide toxicity, MTT assay. Format: cell-based, human. Particulars: human, A549 cells. The procedure: (§5) Human type II pneumocyte cell line A549 derived from a human lung carcinoma were obtained from American Type Culture Collection (LGC, UK) and were grown in DMEM medium (Invitrogen, Spain) supplemented with 10% heat-inactivated fetal bovine serum, vancomycin (50 μg/mL), gentamicin (20 μg/mL), amphotericin B (0.25 μg/mL) (Invitrogen, Spain) and 1% HEPES (Invitrogen, Spain) in a humidified incubator, 5% CO2 at 37 °C. A549 cells were routinely passaged every 3–4 days. The cells were seeded 24 h in 96-well plates for cellular viability assay, and in 24 well plates for adhesion and immnunofluorescence assays.
(§6) Peptide toxicity. […] Prior the evaluation of the peptides cytotoxicity, A549 cells were washed three times with prewarmed PBS. Then, peptides cytotoxicity was initially assessed quantitatively by monitoring the mitochondrial reduction activity using the MTT assay as described previously. The percentage of […] was calculated from the optical density (OD) as follow: [(OD of treated cells / mean OD of non-treated cell) × 100].
(§7) Table S2. Percentages of A549 cellular viability assessed through mitochondrial reduction
(§8) activity (MTT assay) in presence of anti-OmpA hexapeptides and control peptides (SXV4 and
(§9) COL). COL: colistin. ND: not determined.
(§10) Peptides 0.25 mg/mL 0.5 mg/mL 1 mg/mL 5 mg/mL
Background: Tetrazolium assays rely on reduction of a dye to a coloured formazan, in cell work by metabolically active cells.

For another data set, the system named is A549 cells. Description: Peptide toxicity, MTT assay. Format: cell-based, human. Particulars: 48 h, MTT, mean ± SEM. The procedure: as §5, §6, §7, §8, §9, §10

Where a SMILES comes first, the peptide text is derived from it. [ ]: non-standard residue; d: D form.

The term MIC denotes the lowest concentration found to suppress growth. Low values mean a more susceptible organism, high ones a less susceptible organism. The term viability denotes a read-out of living cells in per cent, often relative to untreated cells. With `CC(=O)N[C@@H](Cc1c[nH]c2ccccc12)C(=O)N1CCC[C@@H]1C(=O)N[C@@H](CCCNC(=N)N)C(=O)N[C@@H](Cc1c[nH]c2ccccc12)C(=O)N1CCC[C@@H]1C(=O)N[C@@H](CCCNC(=N)N)C(=O)O` [SXV4] (Ac-W[dP]RW[dP]R-OH), the MIC in the data set on P. aeruginosa PaO1 is more than 500 µg/mL. Further, in the data set on E. coli ATCC 25922, the minimal inhibitory concentration (MIC) is reported as more than 500 µg/mL. Further, the MIC in the data set with A. baumannii ATCC 17978 is on record as more than 500 µg/mL. Further, in data set [1], the viability at 48 h, 250 µg/mL stood at 98.17 ± 0.6%; the viability at 48 h, 500 µg/mL is 98.79 ± 0.28%; the viability at 48 h, 1000 µg/mL worked out at 98.55 ± 0.21%.

The molecule `O=C1N[C@@H](CO)C(=O)N2CCC[C@@H]2C(=O)N[C@@H](Cc2c[nH]c3ccccc23)C(=O)N[C@@H](CO)C(=O)N2CCC[C@@H]2C(=O)N[C@H]1Cc1c[nH]c2ccccc12` [AOA-5] (cyclo(S[dP]WS[dP]W)) showed an MIC in the data set with P. aeruginosa PaO1 of more than 500 µg/mL. The molecule further gave an MIC in the data set with E. coli ATCC 25922 of more than 500 µg/mL. The molecule also registered an MIC against A. baumannii ATCC 17978 of more than 500 µg/mL. In data set [1], the viability at 48 h, 250 µg/mL was 98.86 ± 0.08%; the viability at 48 h, 500 µg/mL came out at 100 ± 0.39%; the viability at 48 h, 1000 µg/mL stood at 100.1 ± 0.46%.

For `N=C(N)NCCC[C@@H]1NC(=O)[C@@H](Cc2c[nH]c3ccccc23)NC(=O)[C@@H]2CCCN2C(=O)[C@H](CCCNC(=N)N)NC(=O)[C@@H](Cc2c[nH]c3ccccc23)NC(=O)[C@@H]2CCCN2C1=O` [AOA-3] (cyclo(P[dW]RP[dW]R)), in the data set with P. aeruginosa PaO1, the MIC is more than 500 µg/mL. In the data set with E. coli ATCC 25922, the MIC is on record as more than 500 µg/mL. The molecule further displayed an MIC in the data set with A. baumannii ATCC 17978 of more than 500 µg/mL. In data set [1], the viability at 48 h, 250 µg/mL came out at 99.27 ± 0.21%; the viability at 48 h, 500 µg/mL was determined as 99.7 ± 0.14%; the viability at 48 h, 1000 µg/mL turned out to be 99.36 ± 0.3%.

In the case of `O=C(O)CC[C@@H]1NC(=O)[C@H](Cc2c[nH]c3ccccc23)NC(=O)[C@H]2CCCN2C(=O)[C@H](CCC(=O)O)NC(=O)[C@H](Cc2c[nH]c3ccccc23)NC(=O)[C@H]2CCCN2C1=O` [AOA-6] (cyclo(E[dP]WE[dP]W)), the MIC with P. aeruginosa PaO1 is listed as more than 500 µg/mL. This molecule also showed an MIC in the data set on E. coli ATCC 25922 of more than 500 µg/mL. In the data set with A. baumannii ATCC 17978, this molecule yielded an MIC of more than 500 µg/mL. Also, in data set [1], the viability at 48 h, 250 µg/mL is 98.31 ± 0.35%; the viability at 48 h, 500 µg/mL was 99.14 ± 0.44%; the viability at 48 h, 1000 µg/mL was determined as 99.38 ± 0.34%.

As to colistin [reference compound], the “Cellular viability (%)” value in the data set with A549 cells (A549, 0.5 mg/mL) is on record as 91.85 ± 2.67%; in the data set on A549 cells (A549, 1 mg/mL), 68.39 ± 2.93%; with A549 cells (A549, 5 mg/mL) it was 9.88 ± 0.42%.

For `N=C(N)NCCC[C@H]1NC(=O)[C@H](Cc2c[nH]c3ccccc23)NC(=O)[C@@H]2CCCN2C(=O)[C@@H](CCCNC(=N)N)NC(=O)[C@H](Cc2c[nH]c3ccccc23)NC(=O)[C@@H]2CCCN2C1=O` [AOA-4] (cyclo(PW[dR]PW[dR])), the MIC in the data set with P. aeruginosa PaO1 was more than 500 µg/mL. In the data set with E. coli ATCC 25922, this molecule yielded a minimal inhibitory concentration (MIC) of more than 500 µg/mL. The molecule further displayed an MIC with A. baumannii ATCC 17978 of more than 500 µg/mL. Moreover, in data set [1], the viability at 48 h, 250 µg/mL came out at 99.47 ± 0.39%; the viability at 48 h, 500 µg/mL was found to be 99.77 ± 0.17%; the viability at 48 h, 1000 µg/mL was 100.1 ± 0.18%.

As to `N=C(N)NCCC[C@@H]1NC(=O)[C@H](Cc2c[nH]c3ccccc23)NC(=O)[C@H]2CCCN2C(=O)[C@H](CCCNC(=N)N)NC(=O)[C@H](Cc2c[nH]c3ccccc23)NC(=O)[C@H]2CCCN2C1=O` [AOA-1] (cyclo(R[dP]WR[dP]W)), the MIC with P. aeruginosa PaO1 is listed as more than 500 µg/mL. Besides, the MIC against E. coli ATCC 25922 is more than 500 µg/mL. The molecule also displayed an MIC against A. baumannii ATCC 17978 of more than 500 µg/mL. In addition, in data set [1], the viability at 48 h, 250 µg/mL came to 98.89 ± 0.41%; the viability at 48 h, 500 µg/mL turned out to be 99.69 ± 0.26%; the viability at 48 h, 1000 µg/mL amounted to 99.7 ± 0.38%.

The values above are taken from paper PMC5666006, “Combating virulence of Gram-negative bacilli by OmpA inhibition” (Scientific Reports, 2017).
